Experimental data from patent US7247725B2, “Gamma-aminoamide modulators of chemokine receptor activity” (Merck & Co., Inc., priority 2002, dated 2007).

Biological target: CCR-2 (Homo sapiens, UniProt P41597)
Experiment: relative activity of separated diastereomers (assay not stated)
Conditions: single isomers separated by chiral HPLC (ChiralPak OD); fast vs slow isomer

Sequence of CCR-2 (P41597 whole entry): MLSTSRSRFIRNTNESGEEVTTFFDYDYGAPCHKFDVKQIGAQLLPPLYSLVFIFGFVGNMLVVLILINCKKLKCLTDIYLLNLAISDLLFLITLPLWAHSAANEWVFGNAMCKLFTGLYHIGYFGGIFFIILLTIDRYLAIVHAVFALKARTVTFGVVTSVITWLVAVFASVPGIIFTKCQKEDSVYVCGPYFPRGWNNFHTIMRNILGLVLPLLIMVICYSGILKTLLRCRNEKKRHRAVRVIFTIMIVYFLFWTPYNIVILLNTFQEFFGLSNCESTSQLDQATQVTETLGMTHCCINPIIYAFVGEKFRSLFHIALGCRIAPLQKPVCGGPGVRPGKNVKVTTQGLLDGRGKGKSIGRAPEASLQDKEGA

Row | SMILES | relative activity of the two diastereomers epimeric α to the amide carbonyl
1 | CC(=O)Nc1nc([C@@H](CCN2CC[C@@]3(C=Cc4ccccc43)[C@@H](C)C2)C(=O)NCc2cc(C(F)(F)F)cc(C(F)(F)F)c2)cs1 [Example 52h-(R)] | less active
2 | CC(=O)Nc1nc([C@H](CCN2CC[C@@]3(C=Cc4ccccc43)[C@@H](C)C2)C(=O)NCc2cc(C(F)(F)F)cc(C(F)(F)F)c2)cs1 [Example 52h-(S)] | more active
